Test results taken from ChEMBL document CHEMBL5696442, “Discovery of type II inhibitors of TGFβ-activated kinase 1 (TAK1) and mitogen-activated protein kinase kinase kinase kinase 2 (MAP4K2)” (J Med Chem, 2015).
The source made the active and inactive calls. The rule behind the calls is not given here.

Experiments:
[1] = target: T1, Serine/threonine-protein kinase Nek9 (Homo sapiens) (UniProt Q8TD19); test: Inhibition of NEK9 Lys2 labeling site in human Huh-7 cell lysate at 1 uM by KiNativ Profiling analysis relative to control; type: subcellular
T1 sequence (whole entry): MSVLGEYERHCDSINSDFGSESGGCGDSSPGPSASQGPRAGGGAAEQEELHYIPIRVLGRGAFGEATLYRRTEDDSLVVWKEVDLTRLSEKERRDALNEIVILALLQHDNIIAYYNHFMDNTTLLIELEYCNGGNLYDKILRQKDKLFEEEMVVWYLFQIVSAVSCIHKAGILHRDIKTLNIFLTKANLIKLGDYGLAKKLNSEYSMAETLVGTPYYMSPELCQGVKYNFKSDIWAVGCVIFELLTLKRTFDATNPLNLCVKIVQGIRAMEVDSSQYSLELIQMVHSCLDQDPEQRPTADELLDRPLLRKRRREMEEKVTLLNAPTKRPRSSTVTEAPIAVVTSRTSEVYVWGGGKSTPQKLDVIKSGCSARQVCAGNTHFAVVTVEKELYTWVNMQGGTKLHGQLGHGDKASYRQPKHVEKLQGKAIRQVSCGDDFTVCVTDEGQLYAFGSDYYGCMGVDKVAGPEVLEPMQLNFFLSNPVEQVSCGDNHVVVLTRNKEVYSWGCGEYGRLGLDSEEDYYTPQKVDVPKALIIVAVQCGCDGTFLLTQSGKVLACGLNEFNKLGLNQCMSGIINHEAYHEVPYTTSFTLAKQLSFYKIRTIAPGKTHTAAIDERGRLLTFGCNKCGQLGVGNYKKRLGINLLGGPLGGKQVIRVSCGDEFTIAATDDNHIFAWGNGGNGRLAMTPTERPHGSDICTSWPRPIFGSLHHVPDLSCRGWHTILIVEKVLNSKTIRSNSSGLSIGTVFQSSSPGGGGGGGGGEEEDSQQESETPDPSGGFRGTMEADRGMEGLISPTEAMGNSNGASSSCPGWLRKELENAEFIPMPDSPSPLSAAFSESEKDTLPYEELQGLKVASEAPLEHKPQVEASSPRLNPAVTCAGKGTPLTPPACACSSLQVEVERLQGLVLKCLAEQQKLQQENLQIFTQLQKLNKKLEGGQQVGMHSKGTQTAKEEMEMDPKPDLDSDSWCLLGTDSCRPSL

[2] = target: Serine/threonine-protein kinase WNK2 (Homo sapiens) (UniProt Q9Y3S1); test: Inhibition of Wnk2 Lys2 labeling site in human Huh-7 cell lysate at 1 uM by KiNativ Profiling analysis relative to control; type: subcellular
[3] = target: Cyclin-dependent kinase 2 (Homo sapiens) (UniProt P24941); test: Inhibition of CDK2 Lys1 labeling site in human Huh-7 cells at 1 uM by KiNativ Profiling analysis relative to control; type: cell-based
[4] = target: MAP kinase-activated protein kinase 2 (Homo sapiens) (UniProt P49137); test: Inhibition of MAPKAPK2 (unknown origin) at 10 uM by Ambit Kinomescan binding assay
[5] = target: Wee1-like protein kinase 2 (Homo sapiens) (UniProt P0C1S8); test: Inhibition of WEE2 (unknown origin) at 10 uM by Ambit Kinomescan binding assay
[6] = target: T2, Receptor-interacting serine/threonine-protein kinase 4 (Homo sapiens) (UniProt P57078); test: Inhibition of ANKRD3 Lys1 labeling site in human A-375 cells at 0.05 uM by KiNativ Profiling analysis relative to control; type: cell-based
T2 sequence (whole entry): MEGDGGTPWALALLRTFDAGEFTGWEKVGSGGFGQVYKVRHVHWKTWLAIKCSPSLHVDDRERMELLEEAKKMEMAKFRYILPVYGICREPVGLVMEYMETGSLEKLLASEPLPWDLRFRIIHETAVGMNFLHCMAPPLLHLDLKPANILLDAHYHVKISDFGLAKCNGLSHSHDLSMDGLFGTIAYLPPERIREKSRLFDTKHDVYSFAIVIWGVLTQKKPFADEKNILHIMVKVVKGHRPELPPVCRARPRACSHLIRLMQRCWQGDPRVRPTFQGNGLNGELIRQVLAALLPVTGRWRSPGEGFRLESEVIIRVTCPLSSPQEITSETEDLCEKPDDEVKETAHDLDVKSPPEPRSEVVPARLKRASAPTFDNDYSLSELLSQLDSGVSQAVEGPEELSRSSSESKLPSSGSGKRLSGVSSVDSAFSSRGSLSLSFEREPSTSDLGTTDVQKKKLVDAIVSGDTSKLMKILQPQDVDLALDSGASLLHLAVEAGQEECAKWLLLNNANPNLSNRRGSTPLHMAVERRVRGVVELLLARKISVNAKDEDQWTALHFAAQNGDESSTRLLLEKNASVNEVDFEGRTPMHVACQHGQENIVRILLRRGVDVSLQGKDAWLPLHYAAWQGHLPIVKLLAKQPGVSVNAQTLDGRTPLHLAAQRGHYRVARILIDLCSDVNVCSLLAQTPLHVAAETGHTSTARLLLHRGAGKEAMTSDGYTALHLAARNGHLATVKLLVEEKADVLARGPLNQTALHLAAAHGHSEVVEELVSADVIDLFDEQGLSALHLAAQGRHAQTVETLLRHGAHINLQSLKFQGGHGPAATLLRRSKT

[7] = tested on: Tyrosine-protein kinase ABL1 (Homo sapiens), P00519 [F317I]; test: Inhibition of nonphosphorylated ABL1 F317I mutant (unknown origin) at 1 uM by Ambit Kinomescan binding assay relative to control
[8] = target: T3, Mitogen-activated protein kinase kinase kinase 2 (Homo sapiens) (UniProt Q9Y2U5); test: Inhibition of MAP3K2 (unknown origin) at 1 uM by Ambit Kinomescan binding assay relative to control; values are per cent of control
T3 sequence (whole entry): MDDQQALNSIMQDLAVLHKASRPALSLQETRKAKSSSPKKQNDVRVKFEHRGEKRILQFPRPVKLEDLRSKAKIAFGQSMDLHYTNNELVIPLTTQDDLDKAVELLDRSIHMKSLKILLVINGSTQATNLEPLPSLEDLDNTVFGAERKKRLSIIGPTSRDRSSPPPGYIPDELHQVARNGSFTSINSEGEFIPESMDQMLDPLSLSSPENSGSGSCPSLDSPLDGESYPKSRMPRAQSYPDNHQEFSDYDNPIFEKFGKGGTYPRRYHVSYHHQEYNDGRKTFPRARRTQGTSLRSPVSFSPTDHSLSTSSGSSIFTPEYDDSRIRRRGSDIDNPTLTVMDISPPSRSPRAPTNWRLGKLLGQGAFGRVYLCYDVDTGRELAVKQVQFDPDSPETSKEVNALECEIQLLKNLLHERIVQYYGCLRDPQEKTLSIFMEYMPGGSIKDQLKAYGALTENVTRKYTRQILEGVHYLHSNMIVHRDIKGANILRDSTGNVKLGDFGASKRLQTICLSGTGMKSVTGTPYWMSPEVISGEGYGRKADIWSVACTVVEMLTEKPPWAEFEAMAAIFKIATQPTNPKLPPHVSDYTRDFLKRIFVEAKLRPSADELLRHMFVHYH

Chain of Serine/threonine-protein kinase WNK2 (Homo sapiens) (Q9Y3S1 whole entry): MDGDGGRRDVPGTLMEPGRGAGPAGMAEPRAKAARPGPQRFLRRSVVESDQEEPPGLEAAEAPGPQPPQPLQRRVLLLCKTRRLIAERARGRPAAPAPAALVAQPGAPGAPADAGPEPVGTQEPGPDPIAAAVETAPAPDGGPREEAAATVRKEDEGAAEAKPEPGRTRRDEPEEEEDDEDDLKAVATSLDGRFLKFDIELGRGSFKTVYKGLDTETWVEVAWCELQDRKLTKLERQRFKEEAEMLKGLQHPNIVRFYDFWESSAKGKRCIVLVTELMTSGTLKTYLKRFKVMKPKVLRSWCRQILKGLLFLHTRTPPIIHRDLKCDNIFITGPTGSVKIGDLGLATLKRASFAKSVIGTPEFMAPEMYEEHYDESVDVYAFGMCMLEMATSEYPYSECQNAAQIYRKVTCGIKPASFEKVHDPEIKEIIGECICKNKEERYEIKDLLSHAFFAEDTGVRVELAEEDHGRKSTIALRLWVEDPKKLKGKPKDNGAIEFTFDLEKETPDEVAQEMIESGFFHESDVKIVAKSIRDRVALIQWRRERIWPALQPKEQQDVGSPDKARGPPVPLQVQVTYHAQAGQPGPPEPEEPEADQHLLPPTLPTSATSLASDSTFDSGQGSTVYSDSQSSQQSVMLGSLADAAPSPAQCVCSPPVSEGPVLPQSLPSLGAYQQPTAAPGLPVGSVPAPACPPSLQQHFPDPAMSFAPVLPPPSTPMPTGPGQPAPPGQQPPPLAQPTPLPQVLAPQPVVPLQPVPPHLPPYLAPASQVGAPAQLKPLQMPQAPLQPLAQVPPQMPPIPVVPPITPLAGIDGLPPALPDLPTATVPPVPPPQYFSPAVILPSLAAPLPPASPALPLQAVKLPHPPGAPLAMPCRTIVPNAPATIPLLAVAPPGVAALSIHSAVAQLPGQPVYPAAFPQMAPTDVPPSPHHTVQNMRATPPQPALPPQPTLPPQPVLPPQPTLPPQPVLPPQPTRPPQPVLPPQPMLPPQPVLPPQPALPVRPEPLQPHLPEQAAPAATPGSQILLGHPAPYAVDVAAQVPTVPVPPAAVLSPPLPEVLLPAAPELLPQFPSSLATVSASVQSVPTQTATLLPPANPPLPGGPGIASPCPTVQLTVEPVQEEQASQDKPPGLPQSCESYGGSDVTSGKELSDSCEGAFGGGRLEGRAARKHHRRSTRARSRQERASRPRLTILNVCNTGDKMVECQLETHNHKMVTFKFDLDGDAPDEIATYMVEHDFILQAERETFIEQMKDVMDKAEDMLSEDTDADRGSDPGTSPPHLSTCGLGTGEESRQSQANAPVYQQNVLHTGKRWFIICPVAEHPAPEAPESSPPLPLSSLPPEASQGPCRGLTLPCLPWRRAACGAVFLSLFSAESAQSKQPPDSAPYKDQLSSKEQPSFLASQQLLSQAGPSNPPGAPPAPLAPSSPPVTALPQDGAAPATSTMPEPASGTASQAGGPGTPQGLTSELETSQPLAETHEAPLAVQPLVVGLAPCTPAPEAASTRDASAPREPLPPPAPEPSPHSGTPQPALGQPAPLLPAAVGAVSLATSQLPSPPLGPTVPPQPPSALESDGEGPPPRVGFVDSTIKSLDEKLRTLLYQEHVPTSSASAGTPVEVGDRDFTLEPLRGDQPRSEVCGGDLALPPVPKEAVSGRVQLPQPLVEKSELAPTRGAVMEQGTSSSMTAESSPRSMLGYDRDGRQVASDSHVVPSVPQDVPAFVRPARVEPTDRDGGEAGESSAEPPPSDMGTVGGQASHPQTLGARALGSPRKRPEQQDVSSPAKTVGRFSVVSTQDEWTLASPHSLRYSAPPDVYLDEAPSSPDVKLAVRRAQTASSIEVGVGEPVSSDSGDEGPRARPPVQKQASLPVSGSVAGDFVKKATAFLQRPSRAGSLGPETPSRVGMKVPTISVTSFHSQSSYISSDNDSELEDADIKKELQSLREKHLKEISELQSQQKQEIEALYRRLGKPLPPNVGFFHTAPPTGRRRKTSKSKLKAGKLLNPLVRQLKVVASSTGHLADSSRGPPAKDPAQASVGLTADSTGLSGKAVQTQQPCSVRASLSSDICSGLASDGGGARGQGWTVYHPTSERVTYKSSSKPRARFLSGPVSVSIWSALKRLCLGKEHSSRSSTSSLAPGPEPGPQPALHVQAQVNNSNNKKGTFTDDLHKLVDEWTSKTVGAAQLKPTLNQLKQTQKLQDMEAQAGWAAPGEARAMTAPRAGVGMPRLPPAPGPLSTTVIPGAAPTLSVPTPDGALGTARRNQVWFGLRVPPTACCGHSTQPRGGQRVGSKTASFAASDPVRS
Chain of Wee1-like protein kinase 2 (Homo sapiens) (P0C1S8 whole entry, looked up): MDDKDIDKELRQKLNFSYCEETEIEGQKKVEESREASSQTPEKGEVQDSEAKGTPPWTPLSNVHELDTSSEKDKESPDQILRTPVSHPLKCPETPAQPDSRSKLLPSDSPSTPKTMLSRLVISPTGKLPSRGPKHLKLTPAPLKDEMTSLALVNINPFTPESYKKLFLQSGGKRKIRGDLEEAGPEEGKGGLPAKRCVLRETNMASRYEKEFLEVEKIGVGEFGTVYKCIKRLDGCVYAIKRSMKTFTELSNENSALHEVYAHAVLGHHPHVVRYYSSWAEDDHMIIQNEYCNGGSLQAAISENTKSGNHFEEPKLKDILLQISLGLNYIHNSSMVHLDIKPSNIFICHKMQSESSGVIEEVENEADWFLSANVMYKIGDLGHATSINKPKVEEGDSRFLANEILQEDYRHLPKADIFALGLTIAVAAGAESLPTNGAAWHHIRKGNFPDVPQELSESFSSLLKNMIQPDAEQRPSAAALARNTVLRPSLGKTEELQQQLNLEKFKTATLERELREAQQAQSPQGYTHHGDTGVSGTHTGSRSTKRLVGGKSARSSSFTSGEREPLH
Chain of Tyrosine-protein kinase ABL1 (Homo sapiens), P00519 [F317I] (P00519 whole entry F317I): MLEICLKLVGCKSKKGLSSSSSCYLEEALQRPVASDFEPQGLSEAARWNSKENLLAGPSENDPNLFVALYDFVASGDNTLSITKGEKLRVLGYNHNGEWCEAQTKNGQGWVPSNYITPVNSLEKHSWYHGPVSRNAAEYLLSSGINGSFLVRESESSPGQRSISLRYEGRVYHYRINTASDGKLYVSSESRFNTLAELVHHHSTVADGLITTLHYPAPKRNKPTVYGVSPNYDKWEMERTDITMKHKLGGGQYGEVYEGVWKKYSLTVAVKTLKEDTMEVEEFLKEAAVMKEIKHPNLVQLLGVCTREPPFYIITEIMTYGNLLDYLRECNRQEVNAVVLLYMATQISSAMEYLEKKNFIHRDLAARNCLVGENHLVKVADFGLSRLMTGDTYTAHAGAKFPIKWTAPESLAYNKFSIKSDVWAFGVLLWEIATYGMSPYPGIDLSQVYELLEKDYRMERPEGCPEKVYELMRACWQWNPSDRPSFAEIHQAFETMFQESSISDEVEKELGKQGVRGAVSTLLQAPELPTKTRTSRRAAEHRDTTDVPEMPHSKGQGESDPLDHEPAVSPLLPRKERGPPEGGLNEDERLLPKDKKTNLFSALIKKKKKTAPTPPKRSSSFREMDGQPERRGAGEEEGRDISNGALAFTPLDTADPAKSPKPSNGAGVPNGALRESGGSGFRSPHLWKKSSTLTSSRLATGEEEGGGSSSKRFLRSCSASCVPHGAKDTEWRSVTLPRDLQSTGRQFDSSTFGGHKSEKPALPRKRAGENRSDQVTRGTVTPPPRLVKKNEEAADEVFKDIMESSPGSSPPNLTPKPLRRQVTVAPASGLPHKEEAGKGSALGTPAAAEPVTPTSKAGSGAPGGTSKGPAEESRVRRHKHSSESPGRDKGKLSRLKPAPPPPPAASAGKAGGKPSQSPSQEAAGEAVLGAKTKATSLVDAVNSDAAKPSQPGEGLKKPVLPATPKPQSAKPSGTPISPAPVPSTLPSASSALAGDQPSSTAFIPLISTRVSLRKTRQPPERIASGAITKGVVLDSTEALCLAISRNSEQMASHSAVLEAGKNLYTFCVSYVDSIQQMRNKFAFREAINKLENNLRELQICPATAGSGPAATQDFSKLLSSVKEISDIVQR
Chain of MAP kinase-activated protein kinase 2 (Homo sapiens) (P49137 whole entry, looked up): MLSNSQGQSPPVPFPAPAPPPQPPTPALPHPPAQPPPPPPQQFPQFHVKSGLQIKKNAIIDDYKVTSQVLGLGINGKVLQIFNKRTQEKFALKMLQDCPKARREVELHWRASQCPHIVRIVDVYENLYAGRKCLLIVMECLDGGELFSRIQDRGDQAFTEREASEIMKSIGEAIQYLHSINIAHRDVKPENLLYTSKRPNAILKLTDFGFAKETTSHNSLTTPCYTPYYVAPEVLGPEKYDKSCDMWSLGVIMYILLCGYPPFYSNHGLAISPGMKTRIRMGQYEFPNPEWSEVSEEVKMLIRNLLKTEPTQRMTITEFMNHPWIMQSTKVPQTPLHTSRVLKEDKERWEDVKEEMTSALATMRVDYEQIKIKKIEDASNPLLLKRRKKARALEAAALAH

CNc1cc(Oc2cc(C(=O)Nc3cc(N4CCN(C)CC4)cc(C(F)(F)F)c3)ccc2C)ncn1
inhibition [1]: -3.1%
inhibition [2]: 2.7%
inhibition [3]: -5.7%

CCN1CCN(Cc2ccc(NC(=O)c3ccc(C)c(Oc4ccnc5[nH]ccc45)c3)cc2C(F)(F)F)CC1
inhibition [4]: inactive
inhibition [5]: inactive
inhibition [6]: 32.4%

CCN1CCN(Cc2ccc(NC(=O)c3ccc(C)c(/C=C/c4cnc5[nH]ccc5c4OC)c3)cc2C(F)(F)F)CC1
inhibition [7]: 19%
residual activity [8]: 23%
